Test systems include SF-539 CNS; HOP-92 NSCLC; SF-268 CNS; UACC-62 melanoma; HOP-62 NSCLC; LOX IMVI melanoma; NCI-H460 lung; UO-31 renal; EKVX NSCLC; SW-620 colon.
Common to all, as to experiment: NCI anticancer screen, dose series, 48 h

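Cultured in 96-well plates, cells were exposed to test compound for 48 hours across five concentrations. GI50 marks 50% less growth. TGI marks complete inhibition of growth.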

On to `CN(C)C(=O)SC1=C(c2c(Cl)cccc2Cl)C(=O)c2ccccc21`, for which the GI50 was 9.01 µM with SF-539 CNS; 1.96 µM with HOP-92 NSCLC; 8.9 µM in the test on SF-268 CNS; 3.85 µM in the test with UACC-62 melanoma; 18.7 µM with HOP-62 NSCLC; 1.74 µM in the test on LOX IMVI melanoma. In addition, the GI50 in the test on NCI-H460 lung was 17.4 µM; in the test on UO-31 renal, 2.18 µM; in the test with EKVX NSCLC, 17.4 µM; in the test with SW-620 colon it was 2.17 µM. Also, the TGI in the test with SF-539 CNS is 22.8 µM; with HOP-92 NSCLC, 8.31 µM; in the test with SF-268 CNS, 22.7 µM; in the test with UACC-62 melanoma it was 8.24 µM; with HOP-62 NSCLC, 36.7 µM; in the test on LOX IMVI melanoma, 3.75 µM. The TGI in the test on NCI-H460 lung came out at 37.2 µM; with UO-31 renal, 6.51 µM; with EKVX NSCLC, 40.3 µM; with SW-620 colon it was 5.01 µM.

Regarding `Nc1ncnc2c1c(-c1ccc(Oc3ccccc3)cc1)nn2C[C@@H]1SSC[C@@H]1O`, the GI50 in the test with SF-539 CNS was 1.63 µM; in the test with HOP-92 NSCLC, 1.62 µM; in the test on SF-268 CNS, 0.0375 µM; with UACC-62 melanoma it was 0.193 µM; in the test on HOP-62 NSCLC, 0.202 µM; in the test with LOX IMVI melanoma, 0.169 µM. The GI50 is 0.0286 µM in the test with NCI-H460 lung, 1.54 µM with UO-31 renal, 0.373 µM in the test with EKVX NSCLC and 0.432 µM with SW-620 colon. The TGI turned out to be 26.3 µM in the test on SF-539 CNS; 6.04 µM with HOP-92 NSCLC; 0.53 µM with SF-268 CNS; 0.411 µM in the test on UACC-62 melanoma; 1.24 µM with HOP-62 NSCLC; 1.11 µM in the test with LOX IMVI melanoma. Moreover, the TGI was 0.0807 µM in the test on NCI-H460 lung, 5.63 µM in the test with UO-31 renal, 5.84 µM in the test on EKVX NSCLC and over 84 µM in the test on SW-620 colon.

Regarding `C/C(=N/O)c1ccc2c(c1)C(=NO)c1cc(/C(C)=N/O)ccc1-2`, the TGI in the test on SF-539 CNS was determined as 31.4 µM; in the test on HOP-92 NSCLC, 47.4 µM; in the test on SF-268 CNS it was 28.3 µM; in the test on UACC-62 melanoma, 38.4 µM; with HOP-62 NSCLC it was 28.3 µM; in the test on LOX IMVI melanoma, 26.7 µM. Further, the TGI amounted to 31.8 µM with NCI-H460 lung, 28.3 µM in the test on UO-31 renal, 41.7 µM with EKVX NSCLC and 34.8 µM with SW-620 colon.

As for `CC(C)(CO)N=Cc1ccccc1[O-].CC(C)(CO)N=Cc1ccccc1[O-].[Co+2]`, the GI50 with SF-539 CNS is 66.5 µM; in the test with HOP-92 NSCLC, 12.9 µM; in the test on SF-268 CNS, 46.3 µM; with UACC-62 melanoma, 24.9 µM; in the test with HOP-62 NSCLC, over 100 µM; in the test on LOX IMVI melanoma, 40.5 µM. Also, the GI50 in the test with NCI-H460 lung was over 100 µM; with UO-31 renal it was 44.9 µM; in the test on EKVX NSCLC it was over 84.4 µM; in the test with SW-620 colon it was 72.4 µM. Further, the TGI in the test on SF-539 CNS is over 100 µM; with HOP-92 NSCLC, 95.7 µM; in the test with SF-268 CNS, over 100 µM; with UACC-62 melanoma, over 85.3 µM; in the test on HOP-62 NSCLC, over 100 µM; with LOX IMVI melanoma it was over 63.1 µM. Besides, the TGI with NCI-H460 lung, in the test on UO-31 renal, with EKVX NSCLC and in the test with SW-620 colon was over 100 µM in each case.

As for `CN(C)C/C=C/C(=O)Nc1ccc(C(=O)N2CCC[C@@H](Nc3ncc(Cl)c(-c4c[nH]c5ccccc45)n3)C2)cc1`, the GI50 in the test with SF-539 CNS was 0.176 µM; in the test on HOP-92 NSCLC, 0.244 µM; in the test on SF-268 CNS it was 0.125 µM; with UACC-62 melanoma, 0.173 µM; with HOP-62 NSCLC it was 0.432 µM; in the test on LOX IMVI melanoma it was 0.0558 µM. The GI50 in the test on NCI-H460 lung is 0.498 µM; in the test with UO-31 renal, 9.84 µM; in the test with EKVX NSCLC, 0.827 µM; in the test with SW-620 colon, 0.191 µM. The TGI in the test with SF-539 CNS worked out at 0.65 µM; in the test with HOP-92 NSCLC it was 1.54 µM; with SF-268 CNS, 1.78 µM; with UACC-62 melanoma, 0.445 µM; with HOP-62 NSCLC, 5.74 µM; in the test on LOX IMVI melanoma, 1.28 µM. For the same molecule, the TGI amounted to 5.62 µM in the test on NCI-H460 lung, 23 µM in the test on UO-31 renal, 7.5 µM in the test with EKVX NSCLC and 5.74 µM with SW-620 colon.

As to `COc1cc([C@H]2c3[nH]c4ccccc4c3C[C@H]3COC(=O)N32)cc(OC)c1O`, the TGI in the test on SF-539 CNS is 2.86 µM; in the test on HOP-92 NSCLC it was over 88 µM; in the test on SF-268 CNS, over 72.1 µM; in the test on UACC-62 melanoma, 43.4 µM; in the test with HOP-62 NSCLC, 34.2 µM; in the test with LOX IMVI melanoma, 20.8 µM. In addition, the TGI in the test on NCI-H460 lung was 23.2 µM; with UO-31 renal, 29.7 µM; in the test with EKVX NSCLC it was 22.7 µM; in the test on SW-620 colon it was over 70 µM.

`C=CC1=CC(C)C[C@]1(O)C(=O)OC` (stereo not given in full): the TGI with SF-539 CNS is over 100 µM. The GI50 with HOP-92 NSCLC, in the test on SF-268 CNS, in the test with UACC-62 melanoma, in the test on HOP-62 NSCLC, with LOX IMVI melanoma and with NCI-H460 lung was over 100 µM throughout. For the same molecule, the GI50 in the test with UO-31 renal is over 100 µM; in the test on EKVX NSCLC, over 100 µM; in the test on SW-620 colon, under 0.01 µM.

As to `COc1ccc(/C=C/C(=O)C(C)(C)Br)cc1`, the TGI in the test with SF-539 CNS was 32.2 µM; in the test with HOP-92 NSCLC, 27.9 µM; in the test on SF-268 CNS, 34.7 µM; with UACC-62 melanoma, 27.1 µM; with HOP-62 NSCLC, 25.3 µM; in the test with LOX IMVI melanoma it was 23.3 µM. Further, the TGI in the test on NCI-H460 lung was 48 µM; in the test on UO-31 renal, 16.6 µM; in the test on EKVX NSCLC, 31.7 µM; with SW-620 colon, 5.37 µM.

As for `COC(=O)c1cc2c3c(ccc2[nH]1)N(C(=O)c1cc2c4c(ccc2[nH]1)N(C(=O)c1cc2c5c(ccc2[nH]1)N(C(N)=O)CC5)CC4)CC3`, the TGI in the test with SF-539 CNS is over 34.8 µM; in the test with HOP-92 NSCLC it was 7.31 µM; in the test on SF-268 CNS, over 100 µM; in the test with UACC-62 melanoma it was over 19.8 µM; with HOP-62 NSCLC, 7.83 µM; in the test on LOX IMVI melanoma it was over 34 µM. Besides, the TGI in the test on NCI-H460 lung was over 100 µM; in the test with UO-31 renal it was 8.47 µM; in the test on EKVX NSCLC, over 100 µM; in the test on SW-620 colon, over 100 µM.

Consider `Cn1cnc([N+](=O)[O-])c1Sc1nc(N)nc2nc[nH]c12`, for which the GI50 in the test on SF-539 CNS was 3.15 µM; with HOP-92 NSCLC, 3.1 µM; in the test with SF-268 CNS, 2.39 µM; in the test on UACC-62 melanoma it was 2.96 µM; in the test on HOP-62 NSCLC, 1.22 µM; in the test with LOX IMVI melanoma it was 0.488 µM. For the same molecule, the GI50 with NCI-H460 lung was 2.25 µM; with UO-31 renal, 4.71 µM; with EKVX NSCLC, 3.9 µM; in the test on SW-620 colon it was 7.43 µM. Moreover, the TGI is over 100 µM in the test with SF-539 CNS; over 100 µM with HOP-92 NSCLC; over 100 µM in the test on SF-268 CNS; 25.7 µM in the test with UACC-62 melanoma; over 100 µM with HOP-62 NSCLC; over 100 µM with LOX IMVI melanoma. Besides, the TGI in the test on NCI-H460 lung, in the test with UO-31 renal, with EKVX NSCLC and in the test with SW-620 colon was over 100 µM throughout.

(Values after PubChem BioAssay (NCI).)
